The values below are quoted from earlier work in publication PMC6379498, “Radiosynthesis and in vivo evaluation of ^11C-labeled BMS-193885 and its desmethyl analog as PET tracers for neuropeptide Y1 receptors” (EJNMMI Radiopharmacy and Chemistry, 2019).

By Ki is commonly meant the dissociation constant of the complex between target and ligand, obtained from inhibition or displacement.

Data set [1] has as its target NPY Y1-R. Details: method as in Poindexter et al. [2002]. The conditions noted are these: ref Poindexter et al. [2002]; cited from earlier work.
On the set-up of data set [2]: method as in Antal-Zimanyi et al. [2008]. The conditions noted are these: ref Antal-Zimanyi et al. [2008]; cited from earlier work.
On the set-up of data set [3]: method as in Antal-Zimanyi et al. [2008]. The conditions noted are these: dogs, ref Antal-Zimanyi et al. [2008]; cited from earlier work.
On the set-up of data set [4]: method as in Poindexter et al. [2002]. The conditions noted are these: in vitro, unlabeled 1, ref Poindexter et al. [2002]; cited from earlier work.
On the set-up of data set [5]: method as in Antal-Zimanyi et al. [2008]. The conditions noted are these: rats, ref Antal-Zimanyi et al. [2008]; cited from earlier work.
For data set [6], the system named is animal models of obesity. Details: method as in Antal-Zimanyi et al. [2008]. The conditions noted are these: acute and chronic administration, ref Antal-Zimanyi et al. [2008]; cited from earlier work.

Where two headings read alike, the source gives them in different places.

In the case of `COC(=O)C1=C(C)NC(C)=C(C(=O)OC)C1c1cccc(NC(=O)NCCCN2CCC(c3cccc(OC)c3)CC2)c1` [Compound 1], in data set [1], the Ki is 3.3 nM. Also, in data set [2], the Brain penetration result is reported as “good”, the Oral bioavailability result is on record as “lacks oral bioavailability” and the Systemic bioavailability entry is reported as “good”. For the same compound, the Adverse cardiovascular effects result in data set [3] is reported as “no serious adverse cardiovascular effects”. Further, the “Stability in rat liver microsomes” value in data set [4] was “good stability”. For the same compound, the Adverse cardiovascular effects result in data set [5] is given as “no serious adverse cardiovascular effects”. In addition, in data set [6], the Body weight entry is reported as “reduced” and the Food intake entry is “reduced”.

With `COC(=O)C1=C(C)NC(C)=C(C(=O)OC)C1c1cccc(NC(=O)NCCCN2CCC(c3cccc(O)c3)CC2)c1` [Compound 2, Dimethyl 4-(3-(3-(3-(4-(3-hydroxyphenyl)piperidin-1-yl)propyl)ureido)phenyl)-2,6-dimethyl-1,4-dihydropyridine-3,5-dicarboxylate], the Ki in data set [1] is 2.7 nM.
